# In US12428380B2 (PSYLO PTY LTD, priority 2023, dated 2025):
# Legend:
# Assay type in all cases: cell-based
# 5-HT2A = biological target: T1, 5-HT2A (Homo sapiens, UniProt P28223); assay: FLIPR Ca2+ flux functional assay, 5-HT2A (HEK293); conditions: HEK293 cells expressing 5-HT2A; for Emax: HEK293, agonist activity; for EC50: agonist activity
# T1 construct: host or cells: HEK293
# 5-HT2C = biological target: T2, 5-HT2C (Homo sapiens, UniProt P28335); assay: FLIPR Ca2+ flux functional assay, 5-HT2C (HEK293); conditions: HEK293 cells expressing 5-HT2C; for Emax: HEK293, agonist activity; for EC50: agonist activity
# T2 construct: host or cells: HEK293
# T2 sequence (P28335 33-458): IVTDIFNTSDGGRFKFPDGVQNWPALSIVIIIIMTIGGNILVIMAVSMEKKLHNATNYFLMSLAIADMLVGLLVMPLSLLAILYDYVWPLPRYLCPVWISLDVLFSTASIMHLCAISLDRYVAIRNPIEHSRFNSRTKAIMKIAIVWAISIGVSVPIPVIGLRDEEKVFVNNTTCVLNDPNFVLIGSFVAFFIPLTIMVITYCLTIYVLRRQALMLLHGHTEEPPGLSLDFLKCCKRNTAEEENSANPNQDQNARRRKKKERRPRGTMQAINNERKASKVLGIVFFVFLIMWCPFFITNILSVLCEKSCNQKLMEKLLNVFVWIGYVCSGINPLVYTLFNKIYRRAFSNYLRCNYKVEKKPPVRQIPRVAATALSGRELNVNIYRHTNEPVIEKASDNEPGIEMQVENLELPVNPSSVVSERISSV
# 5-HT2B = biological target: T3, 5-HT2B (Homo sapiens, UniProt P41595); assay: Activation in a similar Ca2+ flux assay at a single concentration, 5-HT2B; conditions: head prints 10 µM
# T3 construct: host or cells: CHO-K1
# Experimental: Activity at 5-HT2A, 5-HT2B and 5-HT2C receptors was determined using a FLIPR Ca2+ flux assay at WuXi AppTec Co. Ltd. (Hong Kong) Discovery Biology Unit according to their standard protocols. Briefly, stably transfected cells expressing the receptor of interest (HEK293 for 5-HT2A and 5-HT2C; CHO-K1 for 5-HT2B) were grown and plated in a 384 well plate and incubated at 37° C. and 5% CO2 overnight. A 250 mM stock solution of probenecid in FLIPR calcium assay buffer (10 mL) was freshly prepared and combined with a fluorescent dye (Fluo-4 Direct) to give a final assay concentration of 2.5 mM. Reference compounds were 4-fold serially diluted and the screening compounds were 3-fold serially diluted in 100% DMSO for 10 points using Agilent Bravo, and 750 nL was added to a 384 well compound plate using Echo along with 30 μL assay buffer. The fluorescent dye was then added to the assay plate along with assay buffer to a final volume of 40 μL. The cell plate was incubated for 50 min at 37° C. and 5% CO2 and placed into the FLIPR Tetra along with the compound plate. 10 μL of references and compounds were then transferred from the compound plate into the cell plate and the fluorescent signal was read.
# Activation data are provided in a similar assay tested at a single 10 μM concentration.
# T3 sequence (P41595 whole entry, species assumed): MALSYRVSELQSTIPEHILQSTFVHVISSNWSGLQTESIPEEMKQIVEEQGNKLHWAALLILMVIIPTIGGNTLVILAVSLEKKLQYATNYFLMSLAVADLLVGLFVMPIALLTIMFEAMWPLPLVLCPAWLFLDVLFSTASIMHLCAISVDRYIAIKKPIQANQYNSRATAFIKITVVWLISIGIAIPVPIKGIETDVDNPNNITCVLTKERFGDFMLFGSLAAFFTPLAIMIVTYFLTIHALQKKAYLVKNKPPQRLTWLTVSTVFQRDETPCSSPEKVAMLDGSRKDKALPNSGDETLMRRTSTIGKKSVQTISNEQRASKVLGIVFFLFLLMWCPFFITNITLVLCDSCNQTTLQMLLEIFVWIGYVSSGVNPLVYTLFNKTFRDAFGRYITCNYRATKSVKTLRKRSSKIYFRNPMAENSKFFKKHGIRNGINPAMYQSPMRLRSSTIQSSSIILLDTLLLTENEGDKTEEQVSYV
# T1 sequence (P28223 whole entry): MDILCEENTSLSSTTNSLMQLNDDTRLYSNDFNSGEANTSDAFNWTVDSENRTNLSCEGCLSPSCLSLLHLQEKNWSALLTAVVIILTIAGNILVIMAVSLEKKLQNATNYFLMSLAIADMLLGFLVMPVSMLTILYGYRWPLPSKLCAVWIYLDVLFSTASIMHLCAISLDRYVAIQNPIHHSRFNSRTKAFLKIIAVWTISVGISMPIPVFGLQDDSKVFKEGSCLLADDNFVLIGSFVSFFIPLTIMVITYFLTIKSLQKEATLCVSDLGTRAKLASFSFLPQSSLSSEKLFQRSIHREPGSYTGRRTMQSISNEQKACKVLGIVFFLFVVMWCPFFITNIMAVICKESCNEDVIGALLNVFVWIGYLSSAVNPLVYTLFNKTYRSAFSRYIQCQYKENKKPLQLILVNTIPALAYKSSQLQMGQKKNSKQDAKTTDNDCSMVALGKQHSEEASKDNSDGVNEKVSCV
structure (smiles),measurement,setting,value
"COc1ccc2[nH]nc(CCN(C)C)c2c1F [Example A9, 2-(4-fluoro-5-methoxy-1H-indazol-3-yl)-N,N-dimethylethan-1-amine]",Emax,5-HT2A,75%
same,EC50,5-HT2A,0.809 µM
same,Emax,5-HT2C,73%
same,EC50,5-HT2C,1.1 µM
same,5-HT2B % Activation @ 10 µM,5-HT2B,0%
"CCN(C)CCc1n[nH]c2ccc(OC)c(F)c12 [Example A10, N-ethyl-2-(4-fluoro-5-methoxy-1H-indazol-3-yl)-N-methylethan-1-amine]",Emax,5-HT2A,69%
same,EC50,5-HT2A,0.831 µM
same,Emax,5-HT2C,68%
same,EC50,5-HT2C,2.86 µM
same,5-HT2B % Activation @ 10 µM,5-HT2B,1%
"COc1ccc2[nH]nc(CCN(C)C(C)C)c2c1F [Example A11, N-(2-(4-fluoro-5-methoxy-1H-indazol-3-yl)ethyl)-N-methylpropan-2-amine]",Emax,5-HT2A,64%
same,EC50,5-HT2A,1.38 µM
same,Emax,5-HT2C,22%
same,EC50,5-HT2C,> 10 µM
same,5-HT2B % Activation @ 10 µM,5-HT2B,0%
"CN(C)CCc1n[nH]c2cccc(F)c12 [Example A13, 2-(4-fluoro-1H-indazol-3-yl)-N,N-dimethylethan-1-amine]",Emax,5-HT2A,55%
same,EC50,5-HT2A,2.05 µM
same,Emax,5-HT2C,48%
same,EC50,5-HT2C,0.944 µM
same,5-HT2B % Activation @ 10 µM,5-HT2B,0%
"CN(C)CCc1n[nH]c2ccc(F)cc12 [Example A17, 2-(5-fluoro-1H-indazol-3-yl)-N,N-dimethylethan-1-amine]",Emax,5-HT2A,82%
same,EC50,5-HT2A,0.167 µM
same,Emax,5-HT2C,80%
same,EC50,5-HT2C,0.034 µM
same,5-HT2B % Activation @ 10 µM,5-HT2B,25%
"CCN(C)CCc1n[nH]c2ccc(F)cc12 [Example A18, N-ethyl-2-(5-fluoro-1H-indazol-3-yl)-N-methylethan-1-amine]",Emax,5-HT2A,55%
same,EC50,5-HT2A,0.264 µM
same,Emax,5-HT2C,79%
same,EC50,5-HT2C,0.128 µM
same,5-HT2B % Activation @ 10 µM,5-HT2B,16%
"CC(C)N(C)CCc1n[nH]c2ccc(F)cc12 [Example A19, N-(2-(5-fluoro-1H-indazol-3-yl)ethyl)-N-methylpropan-2-amine]",Emax,5-HT2A,25%
same,EC50,5-HT2A,> 10 µM
same,Emax,5-HT2C,69%
same,EC50,5-HT2C,1.53 µM
same,5-HT2B % Activation @ 10 µM,5-HT2B,1%
"CN(CCc1n[nH]c2ccc(F)cc12)C1CC1 [Example A20, N-(2-(5-fluoro-1H-indazol-3-yl)ethyl)-N-methylcyclopropanamine]",Emax,5-HT2A,45%
same,EC50,5-HT2A,0.419 µM
same,Emax,5-HT2C,83%
same,EC50,5-HT2C,0.206 µM
same,5-HT2B % Activation @ 10 µM,5-HT2B,1%
"CCN(C)CCc1n[nH]c2cc(F)cc(F)c12 [Example A29, 2-(4,6-difluoro-1H-indazol-3-yl)-N-ethyl-N-methylethan-1-amine]",Emax,5-HT2A,33%
same,EC50,5-HT2A,0.687 µM
same,Emax,5-HT2C,70%
same,EC50,5-HT2C,1.48 µM
same,5-HT2B % Activation @ 10 µM,5-HT2B,0%
"COc1ccccc1CNCCc1n[nH]c2cc(F)cc(F)c12 [Example A33, 2-(4,6-difluoro-1H-indazol-3-yl)-N-(2-methoxybenzyl)ethan-1-amine]",Emax,5-HT2A,91%
same,EC50,5-HT2A,0.0144 µM
same,Emax,5-HT2C,90%
same,EC50,5-HT2C,0.159 µM
same,5-HT2B % Activation @ 10 µM,5-HT2B,23%
"COc1ccccc1CNCCc1n[nH]c2cccc(F)c12 [Example A34, 2-(4-fluoro-1H-indazol-3-yl)-N-(2-methoxybenzyl)ethan-1-amine]",Emax,5-HT2A,86%
same,EC50,5-HT2A,0.0552 µM
same,Emax,5-HT2C,84%
same,EC50,5-HT2C,0.167 µM
same,5-HT2B % Activation @ 10 µM,5-HT2B,0%
"CN(C)CCc1n[nH]c2c(F)cc(F)cc12 [Example A35, 2-(5,7-difluoro-1H-indazol-3-yl)-N,N-dimethylethan-1-amine]",Emax,5-HT2A,72%
same,EC50,5-HT2A,0.213 µM
same,Emax,5-HT2C,54%
same,EC50,5-HT2C,0.495 µM
same,5-HT2B % Activation @ 10 µM,5-HT2B,1%
"CCN(C)CCc1n[nH]c2c(F)cc(F)cc12 [Example A36, 2-(5,7-difluoro-1H-indazol-3-yl)-N-ethyl-N-methylethan-1-amine]",Emax,5-HT2A,70%
same,EC50,5-HT2A,0.361 µM
same,Emax,5-HT2C,55%
same,EC50,5-HT2C,0.732 µM
same,5-HT2B % Activation @ 10 µM,5-HT2B,0%
